Reference: patent US6797807B1, “Compounds and methods for cancer therapy” (Adherex Technologies, Inc., priority 1997, dated 2004)

Tests used:
[1] = system: Adult rats; experiment: Miles assay for vascular permeability (Evans blue); type: in vivo; conditions: rat; for optical densities of dimethylformamide dye extracts from excised injection sites: 100 μg/ml peptide subdermal, OD at 620 nm, compared with PBS and the N-acetyl/C-amide peptides, FIG. 6, FIG. 8
Experimental: The ability of an agent to modulate cell adhesion may generally be evaluated in vivo by assessing the effect on vascular permeability utilizing the Miles assay (McClure et al., J. Pharmacological & Toxicological Methods 32:49-52, 1994). Briefly, a candidate modulating agent may be dissolved in phosphate buffered saline (PBS) at a concentration of 100 μg/ml. Adult rats may be given 100 μl subdermal injections of each peptide solution into their shaved backs, followed 15 minutes later by a single 250 μl injection of 1% Evans blue dissolved in PBS into their tail veins. The subdermal injection sites may be visually monitored for the appearance of blue dye. Once the dye appears (about 15 minutes after injection), each subdermal injection site may be excised, weighed, and placed in 1 ml dimethylformamide for 24 hours to extract the dye. The optical density of the dye extracts may then be determined at 620 nm. In general, the injection of 0.1 ml of modulating agent (at a concentration of 0.1 mg/ml) into the backs of rats causes an increase of dye accumulation at the injection sites of at least 50%, as compared to dye accumulation at sites into which PBS has been injected.
The ability of cyclic and linear peptides to increase vascular permeability was assessed utilizing the Miles assay (McClure et al., J. Pharmacological & Toxicological Meth. 32:49-521994). The peptides were dissolved in phosphate buffered saline (PBS) at a concentration of 100 μg/ml. Adult rats were given 100 μl subdermal injections of each peptide solution into their shaved backs, followed 15 minutes later by a single 250 μl injection of 1% Evans blue dissolved in PBS into their tail veins. The subdermal injection sites were visually monitored for the appearance of blue dye. Once the dye appeared (15 minutes after injection), each subdermal injection site was excised, weighed, and placed in 1 ml dimethylformamide for 24 hours to extract the dye. The optical density of the dye extracts was determined at 620 nm. […]

[2] = system: HUVEC; experiment: Immunofluorescence analysis of occludin in HUVEC; type: cell-based, human; conditions: 200 μg/mL peptide vs vehicle; FIG. 12B
Experimental: For immunofluorescence analysis of occludin, HUVEC grown on glass coverslips were treated with vehicle (FIG. 12A) or 200 μg/mL peptide 76 (FIG. 12B). Cells were fixed with methanol and acetone and stained for occludin (Kevil et al., Microcirculation 5:197-210, 1998). Immunofluorescent staining was performed with anti-occludin polyclonal antibody (Zymed, San Francisco, Calif. used at a concentration of 4 μg/ml) and Cy3-conjugated goat anti-rabbit secondary Ab (Jackson Labs, Westgrove, Pa., used at a 1:250 dilution), and analyzed by fluorescence microscope. […] The photographs shown are representative of at least 20 different fields observed in each experiment and of three independent experiments. Bar=25 μm.

[3] = system: Human neutrophils (polymorphonuclear leukocytes, PMN) on HUVEC monolayers; experiment: Neutrophil (PMN) transendothelial migration across HUVEC monolayers with fMLP; type: cell-based; conditions: 10^-7 M fMLP, vs control with fMLP, FIGS. 10-11
Experimental: A further assay for evaluating modulating agent activity involves determining an effect of a candidate agent on neutrophil migration on endothelial cells. Within such assays, endothelial cells (e.g., HUVEC) may be harvested and cultured using standard techniques. Cells are grown to confluence on 8.0 μm pore cell culture inserts (Falcon, Franklin Lake, N.J.) essentially as described by Ohno et al., Inflammation 21(3):313-24, 1997. Radiolabeled human neutrophils (polymorphonuclear leukocytes, PMN) are added to the apical surface of HUVEC monolayers and allowed to migrate. Migration assays are generally performed in the presence of 10^−7 M N-formyl-methionyl-leucyl-phenylalanine (fMLP), a chemoattractant that causes the leukocytes to undergo diapedesis. PMN migration may be quantitated as follows: [formula]
Human umbilical vein endothelial cells (HUVEC) were harvested from umbilical cords by 0.2% collagenase treatment essentially as described by Yoshida et al., Am. […]
For neutrophil diapedesis experiments, HUVEC were grown to confluence on 8.0 μm pore cell culture inserts (Falcon, Franklin Lake, N.J.) essentially as described by Ohno et al., inflammation 21(3):313-24, 1997. […] The cells were then washed twice with cold phosphate-buffered saline (PBS), spun at 250 g for 8 minutes to remove unincorporated radioactivity and resuspended in PBS. […]
PMN migration was quantitated as follows: [formula]

[4] = system: Human aortic endothelial cells (HAEC); experiment: Endothelial cell adhesion assay: occludin and VE-cadherin immunolocalization in HAEC monolayers; type: cell-based; conditions: 1 hour
Description: The effect of a modulating agent on endothelial cell adhesion may generally be evaluated using immunolocalization techniques. Human aortic endothelial cells (HAEC) may be cultured on fibronectin-coated coverslips (fibronectin may be obtained from Sigma, St. Louis, Mo.) according to the procedures of Jaffe et al., J. Clin. Invest. 52:2745-2756, 1973. Briefly, human endothelial cells may be maintained in EGM (endothelial cell growth medium; Clonetics, San Diego, Calif.) and used for experiments at passage 4. Confluent cultures of HAEC may be exposed to either a candidate modulating agent (final concentration 100 μg/ml EGM), or EGM alone for 1 hour. The cells are then be fixed for 30 minutes at 4° C. in 95% ethanol, followed by fixation in acetone for 1 minute at 4° C. (Furuse et al., J. Cell Biol. 123:1777-1788, 1993). After fixation, the cells may be probed with either mouse anti-VE-cadherin antibodies (Hemeris, Sassenage, France; diluted 1:250 in 0.1% dried skim milk powder dissolved in PBS), or rabbit anti-occludin antibodies (Zymed, South San Francisco, Calif.; diluted 1:300 in 0.1% dried skim milk powder dissolved in PBS) for 1 hour at 37° C. The cells may then be washed with 0.1% dried skim milk powder dissolved in PBS (three washes, 5 minutes/wash), and probed with secondary antibodies (donkey anti-mouse Cy3, or donkey anti-rabbit Cy5 diluted 1:250 in 0.1% dried skim milk powder dissolved in PBS; Jackson Immunoresearch Laboratories Inc., Westgrove, Pa.) for 1 hour at 37° C. The cells may then be washed again with in 0.1% dried skim milk powder dissolved in PBS and mounted in a solution composed of 50% glycerol and 50% PBS to which phenylenediamine (Sigma, St. Louis, Mo.) has been added to a final concentration of 1 mg/ml. The sample may then be analyzed using a Bio-Rad MRC 1000 confocal microscope with Laser Sharp software version 2.1T (Bio-Rad, Hercules, Calif.). In general, 0.1 mg/ml of modulating agent results in the appearance of intercellular gaps within the monolayer cultures and a decrease of at least 50% in the surface expression of occludin and VE-cadherin, as compared to monolayer cultures that were not exposed to the modulating agent.
Human aortic endothelial cells (HAEC) were cultured on fibronectin (Sigma, St. Louis, Mo.) according to the procedures of Jaffe et al., J. Clin. Invest. 52:2745-2756, 1973. Cells were maintained in EGM (endothelial cell growth medium; Clonetics, San Diego, Calif.) and used for experiments at passage 4.
HAEC were cultured on fibronectin-coated coverslips. Confluent cultures of HAEC were exposed to linear peptides (final concentration 100 μg/ml EGM), or EGM alone for 1 hour. […] The samples were analyzed using a Bio-Rad MRC 1000 confocal microscope with Laser Sharp software version 2.1T (Bio-Rad, Hercules, Calif.). […]

[5] = system: Madin Darby canine kidney (MDCK) cells; experiment: Electrical resistance across MDCK cell monolayers; type: cell-based; conditions: 24 hours; for formation of tight junctions in epithelial cells: conclusion from MDCK electrical resistance, 0.5 mg/ml
Experimental: Yet another assay evaluates the effect of an occludin modulating agent on the electrical resistance across a monolayer of cells. For example, Madin Darby canine kidney (MDCK) cells can be exposed to the modulating agent dissolved in medium (e.g., at a final concentration of 0.5 mg/ml for a period of 24 hours). The effect on electrical resistance can be measured using standard techniques. This assay evaluates the effect of a modulating agent on tight junction formation in epithelial cells. In general, the presence of 500 μg/mL modulating agent should result in a statistically significant increase or decrease in electrical resistance after 24 hours.
Madin Darby canine kidney (MDCK) cells were plated in Millicells (Millipore, Bedford, Mass.), at a density of 300,000 cells per Millicell, and cultured in Dulbecco's Modified Eagle Medium (DMEM; Sigma, St. Louis, Mo.) containing 5% fetal calf serum (Sigma, St. Louis, Mo.). Monolayers were exposed to the modulating agent dissolved in medium at a final concentration of 0.5 mg/ml for a period of 24 hours. The electrical resistance was measured using the EVOM device (World Precision Instruments, Sarasota, Fla.). At the time of measurement, fresh medium, with or without the modulating agent, may be added to the Millicells.

[6] = 100 μg/ml peptide, compared to untreated cells

Row | Substance | optical densities of dimethylformamide dye extracts from excised injection sites [1] | occludin staining and intercellular gaps in HUVEC [2] | fMLP-stimulated neutrophil transendothelial migration [3] | accumulation of Evans blue at the injection sites (visual) ([1]; 100 μl subdermal injection of 100 μg/ml peptide in PBS, Evans blue i.v. 15 min later, compared with PBS, acetyl-QYLYHYCVVD-NH2 and H-QYLYHYCVVD-NH2 sites, FIG. 5) | adhesion between endothelial cells (retraction of cells from one another) ([4]; 100 μg/ml peptide in EGM, vs untreated, FIG. 4B) | formation of cobblestone-like monolayers ([4]; 100 μg/ml peptide) | surface expression of VE-cadherin [4, 6] | surface expression of occludin [4, 6] | mean electrical resistance across MDCK cell monolayers ([5]; 0.5 mg/ml peptide, relative to the control (medium alone), FIG. 9) | formation of tight junctions in epithelial cells [5] | formation of tight junctions in epithelial cells ([5]; listed as H-QYLYHYCVVD-COOH)
1 | H-CLYHYC-OH (also: cyclic, kind not given here) [Peptide 5] | more dye was extracted | gaps between adjacent endothelial cells and the lack of junctional proteins at these gaps | increase fMLP-stimulated transendothelial migration | – | – | – | – | – | – | – | –
2 | H-QYLYHYCVVD-OH [Peptide 3] | more dye was extracted | – | – | more blue dye has accumulated | adhesion is decreased | do not form cobblestone-like monolayers | greatly reduced | greatly reduced | increased the electrical resistance | stimulate the formation of tight junctions in epithelial cells | stimulating the formation of tight junctions in epithelial cells
